We go through four molecules from US6201025A, “N-aralkylaminotetralins as ligands for the neuropeptide Y Y5 receptor” (Ortho-McNeil Pharmaceutical, Inc., priority 1999, dated 2001).

Structures can show the parent of a compound that is named as a salt.

For data set [1], the system named is forskolin-stimulated cAMP production/levels in a neuroblastoma cell line. Particulars: cited from earlier work.
The next data set concerns live animals. The note with it: icv or into the amygdala; cited from earlier work.
Data set [2] concerns animal models of learning. The note with it: cited from earlier work.
Another data set deals with luteinizing hormone (LH). Particulars: rodents; cited from earlier work.
Another data set deals with food intake in rats. The note with it: satiated rats; as little as one-billionth of a gram; cited from earlier work.
The subject of the next data set is rodents. Particulars: intracerebroventricularly; cited from earlier work.
For the next data set, the system named is feeding in animals. Particulars: cited from earlier work.
A further data set has as its system classic Y1 receptor. Particulars: cited from earlier work.
For data set [3], the target named is T1, human neuropeptide Y5 receptor (Homo sapiens, UniProt Q15761).
T1 construct: expressed in transfected cells; cell membranes
T1 sequence (Q15761 1-445): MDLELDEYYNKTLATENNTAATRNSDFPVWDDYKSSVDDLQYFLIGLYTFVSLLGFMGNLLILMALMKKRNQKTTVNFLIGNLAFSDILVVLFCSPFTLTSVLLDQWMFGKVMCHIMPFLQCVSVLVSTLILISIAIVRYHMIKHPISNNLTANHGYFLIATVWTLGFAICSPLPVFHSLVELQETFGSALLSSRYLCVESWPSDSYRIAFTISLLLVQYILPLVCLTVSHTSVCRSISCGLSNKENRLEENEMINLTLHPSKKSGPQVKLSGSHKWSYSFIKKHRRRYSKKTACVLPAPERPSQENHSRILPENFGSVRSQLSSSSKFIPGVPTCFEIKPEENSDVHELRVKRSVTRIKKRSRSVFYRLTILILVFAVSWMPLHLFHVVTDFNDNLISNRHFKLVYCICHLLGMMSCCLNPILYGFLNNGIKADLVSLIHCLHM
In words: NPY5 HTS Centrifugation Assay: competition of 125I-PYY binding to membranes of NPY5-transfected HEK293 cells. The note with it: 80 pM 125I-PYY, human NPY Y5 receptor, 1 hr room temperature; for inhibition at 3 µM: read-out: % Inhibition of 125I-PYY Binding @ 3 uM; for inhibition at 30 µM: read-out: % Inhibition of 125I-PYY Binding @ 30 uM. The method, then:
The compounds described in this invention were evaluated for binding to the human neuropeptide Y5 receptor.
Stably transfected cells served as the source for the membranes for the NPY5 receptor binding assay.
NPY5-transfected HEK293 cells were grown to confluence in 150 cm^2 culture dishes. […] Cells were then incubated in phosphate-buffered saline without Calcium and without Magnesium, supplemented with 2 mM EDTA. Cells were incubated for 10 minutes at room temperature and the cells were collected by repetitive pipeting. Cells were formed into pellets and then frozen at -80° C. until needed. Frozen pellets were homogenized with a polytron at full speed for 12 seconds in a homogenization buffer (20 mM Tris HCl, 5 mM EDTA, pH 7.4). Homogenates were centrifuged for 5 minutes at 4° C. at 200 g. Supernatants were transferred to corex tubes and centrifuged for 25 minutes at 28,000 g. Pellets were re-suspended in Binding (20 mM HEPES, 10 mM NaCl, 0.22 mM KH2 PO4, 1.3 mM CaCl2, 0.8 mM MgSO4, pH 7.4). Membranes were kept on ice until use.
Compounds to be tested were prepared as 10x stocks in binding buffer and added first to assay tubes (RIA vials, Sarstedt). […] To each tube is added 100 μL of membranes and the mixture is agitated by pipeting 2 times. Samples are incubated for 1 hr at room temperature. Aluminum cast plates (Sarstedt) containing the vials are then centrifuged 10 minutes at 3200 rpm in a Sorvall RT6000. Supernatant is then aspirated. To each vial 400 μL PBS is added and this is then aspirated again. Vials are then put in carrier polypropylene 12×75 tube and counted in gamma counter (Packard). Non-specific binding is determined in the presence of 300 nM NPY.

Turning to neuropeptide Y [NPY], the “effect on forskolin-stimulated cAMP production/levels” value in data set [1] is on record as “inhibits forskolin-stimulated cAMP production/levels”. Also, the “effect in animal models of anxiety” value in the data set with live animals is listed as “produces anxiolytic effects”. Further, the “memory and performance scores” value in [2] is “improves memory and performance scores”. Further, the “release of luteinizing hormone (LH)” value in the data set with luteinizing hormone (LH) is “mediates endocrine functions such as the release of luteinizing hormone (LH)”. The “effect on food intake, injected directly into the CNS” value with food intake in rats is on record as “causes satiated rats to overeat”. Also, the anxiogenic effect result in the data set on rodents is listed as “not anxiogenic”.
In the case of NPY2-36: NPY fragment, the feeding response entry in the data set on feeding in animals was “potent inducer of feeding”. The “binding at the classic Y1 receptor” value with classic Y1 receptor is reported as “poor binding”.
As for `COc1ccc2c(c1)[C@H](Cc1ccccc1)[C@H](NCCc1c[nH]c3ccccc13)CC2` (relative stereo) [Compound 18, rac-cis-1-(Phenylmethyl)-7-methoxy-N-(2-(3-indolyl)ethyl)-1,2,3,4-tetrahydro-2-naphthalenamine 0.8 fumarate 0.8 methanol 0.2 hydrate], in data set [3], the inhibition – broadly, the change of the read-out against control, counted positive when it falls – at 3 µM is 61% and the inhibition at 30 µM is 104%.
For `COc1ccccc1CN[C@H]1CCc2ccccc2[C@H]1Cc1ccc2ccccc2c1` (racemic) [Compound 22, rac-cis-1-(2-Naphthylmethyl)-N-(2-methoxyphenylmethyl)-1,2,3,4-tetrahydro-2-naphthalenamine monohydrobromide], in data set [3], the inhibition at 3 µM was 15% and the inhibition at 30 µM is 96%.
